Measured values reported in patent publication US10538487B2, “Sulfonylureas and related compounds and use of same” (priority 2015, dated 2020).
Where two headings read alike, the source gives them in different places.

Legend:
[1] = target: NLRP3 inflammasome (Mus musculus, UniProt Q8R4B8); test: Inhibition of IL-1β release, NLRP3 inflammasome activation assay in BMDM; type: cell-based
Method: (§1) The following assays can be used to determine inhibitory activity of test compounds on the NLRP3 inflammasome using common stimuli such as adenosine triphosphate, nigericin, LeuLeu-OMe or monosodium urate crystals (MSU).
Mouse bone marrow-derived macrophages (BMDM) were derived from bone marrow progenitors isolated from the femurs and tibias of C57BL/6 mice.
BMDM are seeded at 1×10^5/ml. The following day the overnight medium is replaced and cells are stimulated with Ultrapure lipopolysaccharide from Escherichia coli K12 strain (InvivoGen) for 3 h. Medium is removed and replaced with serum free medium (SFM) containing test compound 30 min prior to NLRP3 stimulation. […] ATP can be sourced from Sigma Aldrich, nigericin and MSU from Invivogen and LeuLeu-Ome from Chem-Impex International.
(§2) For ELISA and cell death assays cells are seeded in 96 well plates. Supernatants are removed and analysed using ELISA kits according to the manufacturer's instructions (DuoSet® R&D Systems, ReadySetGo!® eBioscience, BD OptEIA™, or Perkin Elmer AlphaLISA®). Cell death is assessed by measurement of LDH release relative to a 100% cell lysis control using the CytoTox96® non-radioactive cytotoxicity assay (Promega).

[2] = target: NLRP3 inflammasome (Homo sapiens, UniProt Q96P20); test: Inhibition of IL-1β release, NLRP3 inflammasome activation assay in HMDM; type: cell-based
Method: as §1
To generate HMDM, human monocytes are isolated from buffy coat blood using Ficoll-Plaque Plus (GE Healthcare) and density centrifugation. CD14^+ cell selection is performed using MACS magnetic beads (Miltenyl Biotec).
HMDM are seeded at 1×10^5/ml. […] Medium is removed and replaced with serum free medium (SFM) containing test compound 30 min prior to NLRP3 stimulation. […] ATP can be sourced from Sigma Aldrich, nigericin and MSU from Invivogen and LeuLeu-Ome from Chem-Impex International.
as §2

[3] = inhibition of IL-1β release, class symbols, read-out: Avg. IL-1β IC50 Murine BMDM
[4] = inhibition of IL-1β release, class symbols, read-out: Avg. IL-1β IC50 HMDM
[5] = commercial compounds (Table 9), read-out: HMDM IC50 vs NLRP3

Sequence of NLRP3 inflammasome (Homo sapiens, UniProt Q96P20) (Q96P20 whole entry): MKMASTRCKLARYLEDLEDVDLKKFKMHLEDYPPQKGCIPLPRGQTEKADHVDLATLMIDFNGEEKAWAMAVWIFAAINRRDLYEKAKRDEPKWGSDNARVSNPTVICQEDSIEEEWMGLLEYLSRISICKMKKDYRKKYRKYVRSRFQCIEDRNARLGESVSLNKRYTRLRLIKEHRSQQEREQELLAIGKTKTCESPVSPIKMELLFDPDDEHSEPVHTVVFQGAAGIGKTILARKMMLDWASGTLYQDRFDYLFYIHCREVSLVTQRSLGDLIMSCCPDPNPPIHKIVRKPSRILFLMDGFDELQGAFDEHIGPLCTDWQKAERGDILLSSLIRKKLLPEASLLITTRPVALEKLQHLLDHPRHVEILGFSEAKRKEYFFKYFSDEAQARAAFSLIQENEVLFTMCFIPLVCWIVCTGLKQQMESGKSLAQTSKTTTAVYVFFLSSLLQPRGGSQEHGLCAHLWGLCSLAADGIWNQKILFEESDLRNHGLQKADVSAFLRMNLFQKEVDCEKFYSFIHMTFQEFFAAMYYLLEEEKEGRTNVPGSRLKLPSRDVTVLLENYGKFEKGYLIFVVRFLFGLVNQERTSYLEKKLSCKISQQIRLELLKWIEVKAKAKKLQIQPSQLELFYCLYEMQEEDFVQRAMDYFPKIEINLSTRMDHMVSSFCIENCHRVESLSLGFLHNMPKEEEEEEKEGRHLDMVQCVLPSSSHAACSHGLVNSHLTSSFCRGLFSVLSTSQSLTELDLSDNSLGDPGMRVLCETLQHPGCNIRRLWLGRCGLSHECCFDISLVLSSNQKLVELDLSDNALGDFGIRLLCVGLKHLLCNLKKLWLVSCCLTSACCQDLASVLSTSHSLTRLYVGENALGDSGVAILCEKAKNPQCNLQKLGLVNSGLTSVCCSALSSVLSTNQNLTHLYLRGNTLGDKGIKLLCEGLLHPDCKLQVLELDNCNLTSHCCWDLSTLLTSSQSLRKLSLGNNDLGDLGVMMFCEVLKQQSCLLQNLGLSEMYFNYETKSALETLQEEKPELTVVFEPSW
Sequence of NLRP3 inflammasome (Mus musculus, UniProt Q8R4B8) (Q8R4B8 whole entry): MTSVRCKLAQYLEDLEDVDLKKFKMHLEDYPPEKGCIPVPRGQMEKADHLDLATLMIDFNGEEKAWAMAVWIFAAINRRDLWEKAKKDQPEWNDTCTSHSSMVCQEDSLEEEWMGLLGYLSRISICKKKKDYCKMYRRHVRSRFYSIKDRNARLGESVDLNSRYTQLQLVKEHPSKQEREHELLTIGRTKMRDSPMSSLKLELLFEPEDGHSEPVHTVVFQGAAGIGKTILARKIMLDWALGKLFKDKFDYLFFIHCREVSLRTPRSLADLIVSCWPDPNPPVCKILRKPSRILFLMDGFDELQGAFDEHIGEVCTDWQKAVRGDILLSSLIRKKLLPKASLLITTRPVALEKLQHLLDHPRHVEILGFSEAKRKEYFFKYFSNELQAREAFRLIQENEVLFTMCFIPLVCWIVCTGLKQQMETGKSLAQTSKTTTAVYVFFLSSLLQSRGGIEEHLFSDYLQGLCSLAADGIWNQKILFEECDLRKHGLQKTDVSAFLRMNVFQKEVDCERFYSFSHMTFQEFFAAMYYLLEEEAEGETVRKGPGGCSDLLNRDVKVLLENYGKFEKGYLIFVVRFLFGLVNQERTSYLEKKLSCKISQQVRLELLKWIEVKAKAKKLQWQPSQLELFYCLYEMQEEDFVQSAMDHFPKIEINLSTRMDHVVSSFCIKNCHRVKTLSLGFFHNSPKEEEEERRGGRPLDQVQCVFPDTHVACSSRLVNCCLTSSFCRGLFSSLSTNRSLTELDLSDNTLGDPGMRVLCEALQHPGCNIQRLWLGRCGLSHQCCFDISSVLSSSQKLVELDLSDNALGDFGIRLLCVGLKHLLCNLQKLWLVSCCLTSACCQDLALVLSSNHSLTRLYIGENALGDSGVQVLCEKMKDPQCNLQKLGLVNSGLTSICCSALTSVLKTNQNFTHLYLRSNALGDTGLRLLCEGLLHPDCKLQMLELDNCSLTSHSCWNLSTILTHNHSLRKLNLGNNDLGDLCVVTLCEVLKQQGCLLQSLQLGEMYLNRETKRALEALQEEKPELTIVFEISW

## CC(C)(O)c1coc(S(=O)(=O)NC(=O)Nc2c3c(cc4c2CCO4)CCC3)c1 [4-(2-hydroxypropan-2-yl)-N-((3,5,6,7-tetrahydro-2H-indeno[5,6-b]furan-4-yl)carbamoyl)furan-2-sulfonamide]
[1]; [3]
  IC50: < 0.1 µM

## CCc1noc2ncc(S(=O)(=O)NC(=O)Nc3c(C(C)C)cc(Cl)cc3C(C)C)cc12 [N-((4-chloro-2,6-diisopropylphenyl)carbamoyl)-3-ethylisoxazolo[5,4-b]pyridine-5-sulfonamide]
[1]; [3]
  IC50: < 10 µM

## CC(C)(O)c1coc(S(=O)(=O)NC(=O)Nc2c3c(c(Br)c4c2OCC4)CCC3)c1 [N-((4-bromo-3,5,6,7-tetrahydro-2H-indeno[5,6-b]furan-8-yl)carbamoyl)-4-(2-hydroxypropan-2-yl)furan-2-sulfonamide]
[1]; [3]
  IC50: < 0.1 µM

## COc1cc(Cl)cc(C(F)(F)F)c1NC(=O)NS(=O)(=O)c1ccn(C(C)C)n1 [N-((4-chloro-2-methoxy-6-(trifluoromethyl)phenyl)carbamoyl)-1-isopropyl-1H-pyrazole-3-sulfonamide]
[1]; inhibition of IL-1β release, numeric bounds, read-out: Avg. IL-1β IC50 Murine BMDM
  IC50: > 10 µM

## Cc1cc(C(=O)NCCc2ccc(S(N)(=O)=O)cc2)no1 [Glisoxepide Precursor, reference compound]
[1]; commercial compounds (Table 9), read-out: BMDM IC50 vs NLRP3
  IC50: > 10000 µM

## CN(C)S(=O)(=O)NC(=O)Nc1c2c(cc3c1CCC3)CCC2 [N-[1,2,3,5,6,7-hexahydro-s-indacen-4-yl]-N′-[(dimethylamino)sulfonyl]urea]
[2]; [4]
  IC50: < 10 µM

## O=C(Nc1c2c(cc3c1OCC3)OCC2)NS(=O)(=O)c1cccc(C2(C(F)(F)F)N=N2)c1 [N-((2,3,6,7-tetrahydrobenzo[1,2-b:4,5-b′]difuran-4-yl)carbamoyl)-3-(3-(trifluoromethyl)-3H-diazirin-3-yl)benzenesulfonamide]
[2]; [4]
  IC50: < 10 µM

## O=C(Nc1c2c(cc3c1CCC3)CCC2)NS(=O)(=O)c1ccn(-c2ccccc2)n1 [N-((1,2,3,5,6,7-hexahydro-s-indacen-4-yl)carbamoyl)-1-phenyl-1H-pyrazole-3-sulfonamide]
[2]; [4]
  IC50: < 1 µM

## O=C(Nc1c2c(cc3c1CCC3)CCC2)NS(=O)(=O)C1CCOC1 (centres unmarked) [N-((1,2,3,5,6,7-hexahydro-s-indacen-4-yl)carbamoyl)tetrahydrofuran-3-sulfonamide]
[2]; [4]
  IC50: < 10 µM

## CCC1=C(C)CN(C(=O)NCCc2ccc(S(N)(=O)=O)cc2)C1=O [Glimespiride precursor, reference compound]
[2]; [5]
  IC50: > 200 µM

## CCc1ccc(S(=O)(=O)NC(=O)Nc2c3c(cc4c2CCC4)CCC3)o1 [5-ethyl-N-((1,2,3,5,6,7-hexahydro-s-indacen-4-yl)carbamoyl)furan-2-sulfonamide]
[2]; [4]
  IC50: < 1 µM

## COc1cc(NC(=O)NS(=O)(=O)c2cc(C(C)(C)O)co2)c2ncccc2c1 [4-(2-hydroxypropan-2-yl)-N-((6-methoxyquinolin-8-yl)carbamoyl)furan-2-sulfonamide]
[2]; [4]
  IC50: < 10 µM

## O=C(Nc1c2c(cc3c1CCC3)CCC2)NS(=O)(=O)c1ccc(Cl)cc1 [4-chloro-N-((1,2,3,5,6,7-hexahydro-s-indacen-4-yl)carbamoyl)benzenesulfonamide]
[2]; [4]
  IC50: < 1 µM

## O=C(Nc1c2c(cc3c1CCC3)CCC2)NS(=O)(=O)N1CCOCC1 [N-((1,2,3,5,6,7-hexahydro-s-indacen-4-yl)carbamoyl)morpholine-4-sulfonamide]
[2]; [4]
  IC50: < 10 µM

## CCCCNC(=O)NS(=O)(=O)c1ccc(N)cc1 [Carbutamide, reference compound]
[2]; [5]
  IC50: > 200 µM

## CC(C)(O)c1coc(S(=O)(=O)NC(=O)Nc2c3c(cc4c2CCC4O)CCC3)c1 (centres unmarked) [N-((1-hydroxy-1,2,3,5,6,7-hexahydro-s-indacen-4-yl)carbamoyl)-4-(2-hydroxypropan-2-yl)furan-2-sulfonamide]
[2]; [4]
  IC50: < 10 µM

## O=C(Nc1c2c(cc3c1CCC3)CCC2)NS(=O)(=O)c1ccn(C(F)(F)F)n1 [N-((1,2,3,5,6,7-hexahydro-s-indacen-4-yl)carbamoyl)-1-(trifluoromethyl)-1H-pyrazole-3-sulfonamide]
[2]; [4]
  IC50: < 0.1 µM

## O=C(Nc1c2c(cc3c1CCC3)CCC2)NS(=O)(=O)c1cccc(-n2cc(-c3ccccc3)nn2)c1 [N-((1,2,3,5,6,7-hexahydro-s-indacen-4-yl)carbamoyl)-3-(4-phenyl-1H-1,2,3-triazol-1-yl)benzenesulfonamide]
[2]; [4]
  IC50: < 10 µM

## CCC1=C(C)CN(C(=O)NCCc2ccc(S(=O)(=O)NC(=O)NC3CCC(C)CC3)cc2)C1=O (centres unmarked) [Glimepiride, reference compound]
[2]; [5]
  IC50: 92 µM

## O=C(Nc1cccc2ncccc12)NS(=O)(=O)c1cccc(C2(C(F)(F)F)N=N2)c1 [N-(quinolin-5-ylcarbamoyl)-3-(3-(trifluoromethyl)-3H-diazirin-3-yl)benzenesulfonamide]
[2]; [4]
  IC50: < 50 µM

## CC(C)(O)c1ccnc(S(=O)(=O)NC(=O)Nc2c3c(cc4c2CCC4)CCC3)c1 [N-(1,2,3,5,6,7-hexahydro-s-indacen-4-ylcarbamoyl)-4-(2-hydroxypropan-2-yl)pyridine-2-sulfonamide]
[2]; [4]
  IC50: < 0.1 µM

## C#CCCC(=O)Nc1cccc(S(=O)(=O)NC(=O)Nc2c3c(cc4c2CCC4)CCC3)c1 [N-(3-(N-((1,2,3,5,6,7-hexahydro-s-indacen-4-yl)carbamoyl)sulfamoyl)phenyl)pent-4-ynamide]
[2]; [4]
  IC50: < 1 µM

## CC(C)(C)c1cc(C(C)(C)C)nc(NC(=O)NS(=O)(=O)c2cc(C(C)(C)O)co2)n1 [N-((4,6-di-tert-butylpyrimidin-2-yl)carbamoyl)-4-(2-hydroxypropan-2-yl)furan-2-sulfonamide]
[2]; [4]
  IC50: < 50 µM

## [2H]C([2H])([2H])C(O)(c1cc(S(=O)(=O)NC(=O)Nc2c3c(c(Br)c4c2OCC4)CCC3)oc1C)C([2H])([2H])[2H] [N-((4-bromo-3,5,6,7-tetrahydro-2H-indeno[5,6-b]furan-8-yl)carbamoyl)-4-(2-hydroxypropan-2-yl-1,1,1,3,3,3-d6)-5-methylfuran-2-sulfonamide]
[2]; [4]
  IC50: < 0.1 µM

## O=C(Nc1c2c(cc3c1CCC3)CCC2)NS(=O)(=O)c1cccc(OC(F)F)c1 [3-(difluoromethoxy)-N-((1,2,3,5,6,7-hexahydro-s-indacen-4-yl)carbamoyl)benzenesulfonamide]
[2]; [4]
  IC50: < 1 µM

## CC(C)c1cc(Cl)cc(C(C)C)c1NC(=O)NS(=O)(=O)c1cc(C(C)(C)O)n(C)n1 [sodium ((4-chloro-2,6-diisopropylphenyl)carbamoyl)((5-(2-hydroxypropan-2-yl)-1-methyl-1H-pyrazol-3-yl)sulfonyl)amide]
[2]; [4]
  IC50: < 0.1 µM

## O=C(Nc1c2c(cc3c1CCC3)CCC2)NS(=O)(=O)C1CCOCC1 [N-((1,2,3,5,6,7-hexahydro-s-indacen-4-yl)carbamoyl)tetrahydro-2H-pyran-4-sulfonamide]
[2]; [4]
  IC50: < 1 µM

## CC(C)c1cc(Cl)cc(C(C)C)c1NC(=O)NS(=O)(=O)c1ccc2ccccc2c1 [N-((4-chloro-2,6-diisopropylphenyl)carbamoyl)naphthalene-2-sulfonamide]
[2]; [4]
  IC50: < 10 µM

## CC(C)c1cc(Cl)cc(C(C)C)c1NC(=O)NS(=O)(=O)c1cccc2cnccc12 [N-((4-chloro-2,6-diisopropylphenyl)carbamoyl)isoquinoline-5-sulfonamide]
[2]; [4]
  IC50: < 1 µM

## Cn1nc(S(=O)(=O)NC(=O)Nc2c3c(cc4c2CCC4)CCC3)cc1C(F)(F)F [N-((1,2,3,5,6,7-hexahydro-s-indacen-4-yl)carbamoyl)-1-methyl-5-(trifluoromethyl)-1H-pyrazole-3-sulfonamide]
[2]; [4]
  IC50: < 1 µM

## CN(C)Cc1ccc(S(=O)(=O)NC(=O)Nc2c3c(cc4c2CCC4)CCC3)o1 [5-((dimethylamino)methyl)-N-((1,2,3,5,6,7-hexahydro-s-indacen-4-yl)carbamoyl)furan-2-sulfonamide]
[2]; [4]
  IC50: < 0.1 µM

## Cc1ccc(S(=O)(=O)NC(=O)NN2CCCCCC2)cc1 [Tolazamide, reference compound]
[2]; [5]
  IC50: > 200 µM

## O=C(Nc1c2c(cc3c1CCC3)CCC2)NS(=O)(=O)c1ccc2c(c1)OCO2 [N-((1,2,3,5,6,7-hexahydro-s-indacen-4-yl)carbamoyl)benzo[d][1,3]dioxole-5-sulfonamide]
[2]; [4]
  IC50: < 1 µM

## CC(C)c1cc(Cl)cc(C(C)C)c1NC(=O)NS(=O)(=O)c1cc(C(C)(C)O)co1 [sodium ((4-chloro-2,6-diisopropylphenyl)carbamoyl)((4-(2-hydroxypropan-2-yl)furan-2-yl)sulfonyl)amide]
[2]; [4]
  IC50: < 0.1 µM

## O=C(Nc1c2c(cc3c1CCC3)CCC2)NS(=O)(=O)C1CCCCC1 [N-((1,2,3,5,6,7-hexahydro-s-indacen-4-yl)carbamoyl)cyclohexanesulfonamide]
[2]; [4]
  IC50: < 10 µM

## Cc1cnc(C(=O)NCCc2ccc(S(N)(=O)=O)cc2)cn1 [Glipizide precursor, reference compound]
[2]; [5]
  IC50: > 50 µM

## CC(C)(O)c1coc(S(=O)(=O)NC(=O)Nc2cccc3cccnc23)c1 [4-(2-hydroxypropan-2-yl)-N-(quinolin-8-ylcarbamoyl)furan-2-sulfonamide]
[2]; [4]
  IC50: < 10 µM

## CC(C)c1cc(Cl)cc(C(C)C)c1NC(=O)NS(=O)(=O)c1cccc2cccnc12 [N-((4-chloro-2,6-diisopropylphenyl)carbamoyl)quinoline-8-sulfonamide]
[2]; [4]
  IC50: < 10 µM
